From patent US20080081841A1, “Materials and Methods for Modulating Cell Motility” (priority 2003, published 2008)

What was measured:
ErbB2 = molecular target: T1, ErbB2 (Homo sapiens, UniProt P04626); test: Shc immunoprecipitation in SKBr3 cells; assay type: cell-based
T1 construct: endogenous in cells; host or cells: SKBr3 breast carcinoma cells

T47D and SKBr3 cells [1] = test: HRG-induced microtubule outgrowth; assay type: cell-based; conditions: nocodazole-treated cells
T47D and SKBr3 cells [2] = test: Actin staining / lamellipodia morphology; assay type: cell-based; conditions: nocodazole-treated cells
Description: Cells were grown on glass coverslips (Falcon, Le Pont De Claix, France) coated with 25 μg/ml rat tail collagen I, serum starved overnight and stimulated with 1 nM HRG-β1 for different times. Cells were fixed in 4% formaldehyde in phosphate buffer saline (PBS) for 20 minutes, permeabilized in 0.2% Triton X-100 for 10 minutes, blocked with 1% bovine serum albumin in PBS for 20 minutes before addition of anti-Myc antibody (Santa Cruz) and Alexa-Fluor 568 goat anti-mouse IgG (Molecular Probes, Leiden, The Netherlands). DNA was counterstained with 0.25 mg/ml Hoechst No. 33342 (Sigma). Actin was stained for 45 minutes with 2 U/ml TRITC-labeled phalloidin (Molecular Probes). Images were recorded with an Axioskop Zeiss microscope coupled to a Sony 3CCD camera or an Olympus IX70 microscope linked to the DeltaVision workstation (Applied Precision, Issaquah, Wa)
F-actin was visualised with TRITC-labelled phalloidin.

[3] = test system: T47D-5R cells expressing Neu or Neu mutants (NYPD, YC, YD, YE); test: Transwell migration assay, HRG-induced; assay type: cell-based, human; conditions: for HRG-induced migration of Neu cells: starting 4 hrs after HRG treatment, RNA or protein synthesis inhibitor
Description: (§1) Cell migration was tested using 8 μm-pore polycarbonate membrane Transwell chambers (Corning Costar Products, Acton, Mass., USA) as described previously^3. In brief, the bottom side of the membrane was coated with 25 μg/ml rat tail collagen I (Roche). Serum starved cells were plated in the top Transwell chamber. Medium with or without 1 nM HRG-β1 (R&D systems, Inc., Minneapolis, Minn., USA) was added to the bottom chamber and cells were allowed to migrate for 24 hours. Non-migrated cells were scraped off the top of the membrane. Migrated cells were fixed in 4% formaldehyde and stained in 0.1% crystal violet. Cells were counted under a microscope in ten high power fields. Migration was expressed as cell number per mm^2. In some instances, cells were pre-incubated for 60 minutes with the U0126 MEK inhibitor (50 μM; Promega), the LY294002 PI3K inhibitor (50 μM; Calbiochem-Novabiochem Corporation, San Diego, Calif., USA), the SB203580 p38 MAPK inhibitor (20 μM; Calbiochem), a Src inhibitor (2.5 μM), the U-73122 PLC inhibitor (2 μM; Calbiochem), cycloheximide (10 μg/ml; Sigma) or 5,6-dichloro-1-β-D-ribofuranosylbenzimidazole (20 μg/ml; Fluka Chemie GmbH, Buchs, Switzerland). Cells were then allowed to migrate for 8 hours before counting.
(§2) Cells were transfected with siRNA using Oligofectamine (GIBCO) according to the manufacturer's instructions. The following 21-mer oligoribonucleotide pairs (obtained from Xeragon Inc., Huntsville, Ala., USA) were used: for Shc (accession number HSU7377) nucleotide 236 to 25640, for Memo (CGI-27; accession number AF132961) nucleotide 460 to 480 and for control LacZ (accession number M55068) nucleotide 4277 to 4297. Cells were plated for migration assay 3 days after siRNA transfection and allowed to migrate for 24 hours. Cell lysates were also prepared 3 and 4 days after transfection and analyzed by Western blotting using a specific anti-Shc antibody (BD Transduction laboratories, Heidelberg, Germany). For Memo, mRNA was extracted using RNeasy Mini (Qiagen, Cologne, Germany) and quantitative radioactive PCR^41 was performed using Memo specific primers (forward from nucleotide 90 to 111 and reverse from nucleotide 235 to 256).
Peptides were delivered into cells using Chariot protein transfection reagent (Active Motif, Rixensart, Belgium) according to the instruction manual. 16 aa-peptides spanning Tyr residue 1201 of Neu (YC peptide) and Tyr residue 1227 of Neu (YD peptide) were obtained from Neosystem (Strasbourg, France) in phosphorylated and non phosphorylated forms. Cells were plated for migration 30 minutes after peptide transfection and the assay was finished after 22 hours.

T47D cells = test: Transwell migration assay; assay type: cell-based, human; conditions: FIG. 1a, 7f
Description: as §1
as §2, with “Cells were plated for migration assay 3 days after siRNA transfection and allowed to migrate for 24 hours.” left out

T1 sequence (P04626 23-1255): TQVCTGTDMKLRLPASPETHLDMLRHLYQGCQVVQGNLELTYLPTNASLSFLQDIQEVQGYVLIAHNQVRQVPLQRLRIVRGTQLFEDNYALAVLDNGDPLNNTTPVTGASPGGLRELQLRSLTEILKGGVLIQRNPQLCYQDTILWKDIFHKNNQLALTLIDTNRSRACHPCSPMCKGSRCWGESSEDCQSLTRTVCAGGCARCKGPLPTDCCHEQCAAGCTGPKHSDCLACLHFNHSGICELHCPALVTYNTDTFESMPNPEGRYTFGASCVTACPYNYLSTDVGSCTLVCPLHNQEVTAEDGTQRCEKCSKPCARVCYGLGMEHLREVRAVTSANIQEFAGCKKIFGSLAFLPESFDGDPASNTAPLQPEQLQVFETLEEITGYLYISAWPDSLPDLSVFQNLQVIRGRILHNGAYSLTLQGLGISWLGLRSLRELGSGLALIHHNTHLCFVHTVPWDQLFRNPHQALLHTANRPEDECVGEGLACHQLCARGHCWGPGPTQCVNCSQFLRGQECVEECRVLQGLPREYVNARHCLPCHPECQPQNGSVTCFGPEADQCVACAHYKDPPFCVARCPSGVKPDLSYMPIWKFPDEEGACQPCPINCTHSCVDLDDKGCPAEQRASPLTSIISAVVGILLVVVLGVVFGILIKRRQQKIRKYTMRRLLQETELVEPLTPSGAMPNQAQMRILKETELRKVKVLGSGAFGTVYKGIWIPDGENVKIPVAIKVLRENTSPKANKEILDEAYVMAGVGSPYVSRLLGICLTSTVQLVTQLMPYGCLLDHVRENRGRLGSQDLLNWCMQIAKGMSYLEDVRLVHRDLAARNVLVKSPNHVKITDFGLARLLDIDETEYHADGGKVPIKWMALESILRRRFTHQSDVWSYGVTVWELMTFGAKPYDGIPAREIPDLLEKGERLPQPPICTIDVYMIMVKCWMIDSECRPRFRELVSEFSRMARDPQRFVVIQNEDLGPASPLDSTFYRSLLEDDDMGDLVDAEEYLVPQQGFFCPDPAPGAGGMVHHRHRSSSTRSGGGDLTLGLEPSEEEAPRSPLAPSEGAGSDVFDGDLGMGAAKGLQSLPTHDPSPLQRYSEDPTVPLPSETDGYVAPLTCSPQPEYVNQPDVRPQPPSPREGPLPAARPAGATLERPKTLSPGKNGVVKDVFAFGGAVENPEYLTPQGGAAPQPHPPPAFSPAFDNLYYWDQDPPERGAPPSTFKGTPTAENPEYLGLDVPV

C[C@@H](Nc1ncnc2[nH]c(-c3ccc(O)cc3)cc12)c1ccccc1 [PKI166]
CGI-27's ability to associate with Shc (ErbB2): did not influence
ErbB2 receptor level in Shc immunoprecipitates (ErbB2): lowered

COC(=O)Nc1nc2ccc(C(=O)c3cccs3)cc2[nH]1 [nocodazole]
microtubule growth (T47D and SKBr3 cells [1]): do not grow microtubules
lamellipodia formation (T47D and SKBr3 cells [2]): still capable of forming lamellipodia

OC[C@H]1O[C@@H](n2cnc3cc(Cl)c(Cl)cc32)[C@H](O)[C@@H]1O [DRB, 5,6-Dichloro-1-β-D-ribofuranosylbenzimidazole]
HRG-induced migration of Neu cells ([3]; FIG. 4a): strongly blocked

insulin: insulin
stimulation of T47D cell migration by ligand (T47D cells): to a lower degree

EGF: epidermal growth factor (NSDSECPLSHDGYCLHDGVCMYIEALDKYACNCVVGYIGERCQYRDLKWWELR; Epidermal growth factor; UniProt P01133 971-1023, looked up)
stimulation of T47D cell migration by ligand (T47D cells): to a lower degree

FGF2: Fibroblast growth factor (FGF) 2
stimulation of T47D cell migration by ligand (T47D cells): stimulated T47D cell migration

C[C@@H]1C[C@@H]([C@H](O)CC2CC(=O)NC(=O)C2)C(=O)[C@@H](C)C1 [cycloheximide]
migration rate of Neu cells ([3]; compared with NYPD cells, FIG. 4a): reduced the migration rate of Neu cells to that of NYPD cells
migration of YD cells, cycloheximide treatment and Memo knock-down compared ([3]; effects not additive, FIG. 7d): blocked to a similar extent
HRG-induced migration of Neu cells ([3]; FIG. 4a): strongly blocked
